Experimental data reported in article PMC11324126, “Novel coumarin-6-sulfonamide-chalcone hybrids as glutathione transferase P1-1 inhibitors” (PLOS ONE, 2024).
Entries after “also recorded” stand apart in the source; their conditions may differ. Like-named read-outs stand apart in the source and are kept apart here.

Experiments:
[1] = molecular target: T1, hGSTP1-1 (Homo sapiens, UniProt P09211); assay: hGSTP1-1 enzyme activity/inhibition assay (CDNB and GSH substrates, 340 nm); type: biochemical; set-up: key to Enzyme Inhibition (%) (symbol): *: Coumarin derivative 5e did not exhibit significant inhibition; settings: for Enzyme Inhibition (%) / IC50 / inhibition at 10 µM: mean ± SE, triplicate; for IC50: concentration-response inhibition, read-out: IC50 towards hGSTP1-1; for inhibition at 10 µM: pH 6.5, 10 μM compound
T1 construct: made in house; host or cells: E. coli
Description: Determination of hGSTP1-1 activity was carried out in potassium phosphate buffer (100 mM, pH 6.5, 1 mL total volume), at 25°C using as substrates CDNB and GSH. The reaction was monitoring at 340 nm for 120 s, as described previously. For inhibition analysis, coumarin derivatives were dissolved in DMSO (100 μΜ) and added to the assay mixture at 10 μΜ final concentration. The mixture was incubated at 25°C for 1 min, prior adding the enzyme sample. The IC50 values were determined from a graph of the remaining GST activity (%) against inhibitor concentration. GraphPad Prism 9.3.1 (GraphPad Prism Software, Inc.) was used for determination of IC50 values. Kinetic inhibition analysis was performed as previously described with minor modifications. Initial velocities using CDNB as a variable substrate (typically 14–1000 μM) were determined in the presence of constant concentration of GSH (2.5 mM) in the absence and presence of the coumarin derivative 5g (0–50 μM). Initial velocities using GSH as a variable substrate (typically 37.5–3750 μΜ) were determined in the presence of 1 mM CDNB in the absence and presence of the coumarin derivative 5g (0–50 μM). Enzyme assays were performed in triplicates and initial velocities were corrected for spontaneous reaction rates.

[2] = test system: HepG2 cells; set-up: method as in PMID 29944015; settings: read-out: IC50 towards HepG2 cells; cited from earlier work
[3] = molecular target: T1, hGSTP1-1; set-up: method as in doi:10.5505/tjb.2012.30301; settings: cited from earlier work
[4] = MTT cytotoxicity assay, DU-145; type: cell-based; settings: human, DU-145 cells, mean ± SE, triplicate, read-out: CC50 against DU-145
Description: (§1) The MTT colorimetric assay was used to evaluate the in vitro cytotoxicity of 5a, 5f and 5g coumarin derivatives against PC3, DU-145 and MCF-7 cancer cell lines. Cancer cells were inoculated into a 96-well plate (initially at a density of 8 x 10^3 cells/well in 100 μL of culture medium) and were cultivated for 24 h, at 37°C in a CO2 incubator (5%). Different concentrations of 5a, 5f and 5g derivatives (1.5 μΜ to 200 μΜ), were added to cultures and incubated for 48 h. […] The culture medium was then replaced with 100 μL of MTT solution (1 mg/mL) and after 2 h incubation, the solution was aspirated and the produced formazan crystals were dissolved in isopropanol (100 μL). The absorbance was measured at 540 nm. Dose–cell viability graphs were created using GraphPad Prism 9.3.1 and the CC50 values were determined.

[5] = MTT cytotoxicity assay, MCF-7; type: cell-based; settings: human, MCF-7 cells, mean ± SE, triplicate, read-out: CC50 against MCF-7
Description: as §1

[6] = MTT cytotoxicity assay, PC3; type: cell-based; settings: human, PC3 cells, mean ± SE, triplicate, read-out: CC50 against PC3
Description: as §1

[7] = 10 μM compound, 25°C, pH 6.5, 10 µM

T1 sequence (P09211 whole entry): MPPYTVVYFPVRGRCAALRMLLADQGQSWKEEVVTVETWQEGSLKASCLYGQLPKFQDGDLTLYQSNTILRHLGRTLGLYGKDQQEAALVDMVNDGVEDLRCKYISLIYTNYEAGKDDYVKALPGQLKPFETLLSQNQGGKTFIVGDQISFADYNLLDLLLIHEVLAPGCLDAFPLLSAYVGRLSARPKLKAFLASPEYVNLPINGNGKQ

Q: Which “Enzyme Inhibition (%) (symbol)” value ([1]; 10 μM compound, 25°C, pH 6.5) does the source give for `COc1cc(C=CC(=O)c2ccc(NS(=O)(=O)c3ccc4oc(=O)ccc4c3)cc2)cc(OC)c1OC` [Compound 5e, 2-oxo-N-(4-(3-(3,4,5-trimethoxyphenyl)acryloyl)phenyl)-2H-chromene-6-sulfonamide] here?
A: The value was “*”.

Q: What about the “Enzyme Inhibition (%)” value ([1]; 10 μM compound, 25°C, pH 6.5) of the same compound?
A: Its value is “no activity”.

Q: Which IC50 [2] does the source give for `C/C(=N\Nc1nc(-c2ccccc2)cs1)c1ccc(NS(=O)(=O)c2ccc3oc(=O)ccc3c2)cc1` [compound II] here?
A: Its IC50 is 3.48 ± 0.28 µM.

Q: With `O=[N+]([O-])c1ccc(S(=O)(=O)Nc2ccc3c(c2)CC(Cc2ccc(Cl)cc2)=C3)cc1` [compound III] as the compound, how does the IC50 [3] read?
A: Its IC50 is 10.2 µM.

Q: Which CC50 at 48 h [4] does the source give for `O=C(C=Cc1ccc(Cl)cc1)c1ccc(NS(=O)(=O)c2ccc3oc(=O)ccc3c2)cc1` [Compound 5g, N-(4-(3-(4-chlorophenyl)acryloyl)phenyl)-2-oxo-2H-chromene-6-sulfonamide] here?
A: Its CC50 at 48 h is 36.6 ± 2.7 µM.

Q: And the “Enzyme Inhibition (%)” value [1, 7]?
A: The value was 87.5 ± 0.0%.

Q: And the “inhibition constant Ki΄ (hGSTP1-1–CDNB complex)” value ([1]; CDNB as variable substrate)?
A: Its value is 19.25 ± 1.20 μΜ.

Q: And the Ki ([1]; CDNB as variable substrate, read-out: inhibition constant Ki (free hGSTP1-1))?
A: The Ki was 4.69 ± 0.11 µM.

Q: And the “inhibition constant Ki΄” value ([1]; GSH as variable substrate)?
A: The value was 25.39 ± 0.60 μΜ.

Q: What about the Ki ([1]; GSH as variable substrate, read-out: inhibition constant Ki) of the same compound?
A: Its Ki is 3.82 ± 0.16 µM.

Q: What about the IC50 [1] of the same compound?
A: The IC50 was 12.2 ± 0.5 µM.

Q: And the type of inhibition ([1]; kinetic inhibition analysis, Lineweaver-Burk)?
A: Its type of inhibition is “mixed-type inhibitor; also recorded: non-competitive, purely mixed-type inhibitor”.

Q: What about the inhibition at 10 µM ([1]; 25°C, pH 6.5) of the same compound?
A: The inhibition at 10 µM was over 85%.

Q: And the CC50 at 48 h [5]?
A: Its CC50 at 48 h is 17.4 ± 2.9 µM.

Q: And the CC50 at 48 h [6]?
A: Its CC50 at 48 h is 11.9 ± 2.5 µM.

Q: Which inhibition at 10 µM ([1]; 25°C, pH 6.5) does the source give for `O=C(C=Cc1ccc(Br)cc1)c1ccc(NS(=O)(=O)c2ccc3oc(=O)ccc3c2)cc1` [Compound 5h, N-(4-(3-(4-bromophenyl)acryloyl)phenyl)-2-oxo-2H-chromene-6-sulfonamide] here?
A: The inhibition at 10 µM was 71.1 ± 0.1%.

Q: For `O=C(C=Cc1ccc(F)cc1)c1ccc(NS(=O)(=O)c2ccc3oc(=O)ccc3c2)cc1` [Compound 5f, N-(4-(3-(4-fluorophenyl)acryloyl)phenyl)-2-oxo-2H-chromene-6-sulfonamide], which CC50 at 48 h [4] is on record?
A: Its CC50 at 48 h is 47.3 ± 2.7 µM.

Q: And the “Enzyme Inhibition (%)” value [1, 7]?
A: The value was 86.9 ± 0.0%.

Q: And the IC50 [1]?
A: The IC50 was 12.7 ± 0.7 µM.

Q: And the inhibition at 10 µM ([1]; 25°C, pH 6.5)?
A: Its inhibition at 10 µM is over 85%.

Q: What about the CC50 at 48 h [5] of the same compound?
A: The CC50 at 48 h was 24.7 ± 1.5 µM.

Q: And the CC50 at 48 h [6]?
A: The CC50 at 48 h was 14.7 ± 0.9 µM.

Q: For `O=C(C=Cc1ccc([N+](=O)[O-])cc1)c1ccc(NS(=O)(=O)c2ccc3oc(=O)ccc3c2)cc1` [Compound 5i, N-(4-(3-(4-nitrophenyl)acryloyl)phenyl)-2-oxo-2H-chromene-6-sulfonamide], which inhibition at 10 µM ([1]; 25°C, pH 6.5) is on record?
A: Its inhibition at 10 µM is 45.4 ± 0.1%.

Q: Which inhibition at 10 µM ([1]; 25°C, pH 6.5) does the source give for `COc1ccc(C=CC(=O)c2ccc(NS(=O)(=O)c3ccc4oc(=O)ccc4c3)cc2)c(OC)c1` [Compound 5d, N-(4-(3-(2,4-dimethoxyphenyl)acryloyl)phenyl)-2-oxo-2H-chromene-6-sulfonamide] here?
A: The inhibition at 10 µM was 59.3 ± 0.1%.

Q: With `COc1ccc(C=CC(=O)c2ccc(NS(=O)(=O)c3ccc4oc(=O)ccc4c3)cc2)cc1` [Compound 5c, N-(4-(3-(4-methoxyphenyl)acryloyl)phenyl)-2-oxo-2H-chromene-6-sulfonamide] as the compound, how does the inhibition at 10 µM ([1]; 25°C, pH 6.5) read?
A: The inhibition at 10 µM was 67%.

Q: For `O=C(C=Cc1ccccc1)c1ccc(NS(=O)(=O)c2ccc3oc(=O)ccc3c2)cc1` [Compound 5a, N-(4-cinnamoylphenyl)-2-oxo-2H-chromene-6-sulfonamide], which CC50 at 48 h [4] is on record?
A: The CC50 at 48 h was 71.4 ± 5.4 µM.

Q: And the “Enzyme Inhibition (%)” value [1, 7]?
A: Its value is 84.6 ± 0.1%.

Q: And the IC50 [1]?
A: The IC50 was 16.3 µM.

Q: What about the inhibition at 10 µM ([1]; 25°C, pH 6.5) of the same compound?
A: Its inhibition at 10 µM is over 85%.

Q: What about the CC50 at 48 h [5] of the same compound?
A: The CC50 at 48 h was 46.8 ± 5.1 µM.

Q: And the CC50 at 48 h [6]?
A: The CC50 at 48 h was 25.3 ± 2.2 µM.

Q: With `Cc1ccc(C=CC(=O)c2ccc(NS(=O)(=O)c3ccc4oc(=O)ccc4c3)cc2)cc1` [Compound 5b, 2-oxo-N-(4-(3-(p-tolyl)acryloyl)phenyl)-2H-chromene-6-sulfonamide] as the compound, how does the inhibition at 10 µM ([1]; 25°C, pH 6.5) read?
A: The inhibition at 10 µM was 62.8 ± 0.1%.
